# Experimental data from paper PMC12372887, “Mechanism and cellular actions of the potent AMPK inhibitor BAY-3827” (Science Advances, 2025).
# Key:
# Assay in all cases: Kinase panel (140 human kinases)
# Assay type in all cases: biochemical
# TTBK2 = TTBK2 (Homo sapiens, UniProt Q6IQ55)
# Experimental: (§1) BAY-3827 and BAY-974 were assayed against a 140-human kinase panel at 0.1 μM and at 1 μM (BAY-3827) concentration in a [γ-^33P] ATP–based radioactive filter binding assay ([31], [65]) setup in duplicates with reported mean remaining kinase percentage activity alongside SD (table S1). Assays were performed at either 5, 20, or 50 μM ATP to be at or below the Michaelis constant for ATP for each enzyme and conducted by the services offered by the International Centre for Kinase Profiling at MRC Protein Phosphorylation and Ubiquitylation Unit, University of Dundee (https://www.kinase-screen.mrc.ac.uk/services/premier-screen).
# PKBb = PKBb (Homo sapiens, UniProt P31751)
# Sequence of PKBb (P31751 whole entry): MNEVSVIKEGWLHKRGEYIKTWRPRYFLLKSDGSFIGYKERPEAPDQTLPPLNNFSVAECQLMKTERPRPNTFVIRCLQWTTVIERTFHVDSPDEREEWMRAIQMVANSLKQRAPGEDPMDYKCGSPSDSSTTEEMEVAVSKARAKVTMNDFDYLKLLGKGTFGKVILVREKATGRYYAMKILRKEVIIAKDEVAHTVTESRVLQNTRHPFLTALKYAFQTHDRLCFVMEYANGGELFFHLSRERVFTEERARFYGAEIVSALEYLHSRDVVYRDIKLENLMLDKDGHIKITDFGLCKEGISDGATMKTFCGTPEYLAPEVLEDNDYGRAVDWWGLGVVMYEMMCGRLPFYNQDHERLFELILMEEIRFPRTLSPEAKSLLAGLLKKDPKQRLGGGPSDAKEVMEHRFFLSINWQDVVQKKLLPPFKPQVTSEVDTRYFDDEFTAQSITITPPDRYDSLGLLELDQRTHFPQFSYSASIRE
# Experimental: as §1
# SmMLCK = SmMLCK (Homo sapiens, UniProt Q15746)
# Sequence of SmMLCK (Q15746 923-1914): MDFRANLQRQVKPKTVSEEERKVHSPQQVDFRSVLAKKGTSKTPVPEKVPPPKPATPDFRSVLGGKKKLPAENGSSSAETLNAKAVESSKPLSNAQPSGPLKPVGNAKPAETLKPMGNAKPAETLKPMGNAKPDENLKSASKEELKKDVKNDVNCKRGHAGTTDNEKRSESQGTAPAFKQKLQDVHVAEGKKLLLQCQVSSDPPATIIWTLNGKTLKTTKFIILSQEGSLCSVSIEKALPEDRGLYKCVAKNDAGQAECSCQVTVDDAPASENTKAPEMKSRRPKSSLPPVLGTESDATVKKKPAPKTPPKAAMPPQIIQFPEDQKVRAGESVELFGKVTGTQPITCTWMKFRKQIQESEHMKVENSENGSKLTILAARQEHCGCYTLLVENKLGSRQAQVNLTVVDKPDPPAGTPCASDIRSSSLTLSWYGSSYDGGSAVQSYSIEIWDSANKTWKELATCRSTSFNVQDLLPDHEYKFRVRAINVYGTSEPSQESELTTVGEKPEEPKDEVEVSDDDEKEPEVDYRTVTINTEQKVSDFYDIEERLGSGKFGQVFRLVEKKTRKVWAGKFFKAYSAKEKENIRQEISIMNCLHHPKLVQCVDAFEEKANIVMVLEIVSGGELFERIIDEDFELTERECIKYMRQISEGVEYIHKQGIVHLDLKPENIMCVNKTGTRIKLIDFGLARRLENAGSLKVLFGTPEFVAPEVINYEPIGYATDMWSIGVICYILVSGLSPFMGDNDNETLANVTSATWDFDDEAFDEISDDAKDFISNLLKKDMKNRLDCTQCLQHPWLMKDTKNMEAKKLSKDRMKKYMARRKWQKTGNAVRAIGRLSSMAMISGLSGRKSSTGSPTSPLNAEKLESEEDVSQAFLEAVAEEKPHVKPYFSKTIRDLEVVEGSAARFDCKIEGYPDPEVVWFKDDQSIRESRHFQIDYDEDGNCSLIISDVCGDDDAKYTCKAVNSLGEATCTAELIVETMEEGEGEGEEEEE
# Experimental: as §1
# MELK = MELK (Homo sapiens, UniProt Q14680)
# Sequence of MELK (Q14680 whole entry): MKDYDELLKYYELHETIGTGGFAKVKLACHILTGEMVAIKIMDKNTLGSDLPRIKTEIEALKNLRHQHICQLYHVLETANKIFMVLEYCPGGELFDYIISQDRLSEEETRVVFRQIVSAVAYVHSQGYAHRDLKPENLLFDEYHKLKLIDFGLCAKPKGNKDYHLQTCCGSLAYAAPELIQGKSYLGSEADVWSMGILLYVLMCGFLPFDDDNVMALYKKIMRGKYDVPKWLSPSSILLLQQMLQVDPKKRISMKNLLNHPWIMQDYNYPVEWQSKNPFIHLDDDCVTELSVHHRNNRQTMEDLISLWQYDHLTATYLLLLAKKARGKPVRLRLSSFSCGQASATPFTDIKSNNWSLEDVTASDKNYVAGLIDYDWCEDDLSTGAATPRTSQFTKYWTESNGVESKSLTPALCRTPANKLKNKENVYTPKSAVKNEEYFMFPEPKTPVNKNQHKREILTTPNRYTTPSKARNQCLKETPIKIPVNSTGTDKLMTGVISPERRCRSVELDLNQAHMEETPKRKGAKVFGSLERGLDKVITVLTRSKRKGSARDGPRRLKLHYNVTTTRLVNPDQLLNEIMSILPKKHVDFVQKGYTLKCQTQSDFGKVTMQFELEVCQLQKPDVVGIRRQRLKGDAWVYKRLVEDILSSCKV
# Experimental: as §1
# TIE2 = TIE2 (Homo sapiens, UniProt Q02763)
# Sequence of TIE2 (Q02763 23-1124): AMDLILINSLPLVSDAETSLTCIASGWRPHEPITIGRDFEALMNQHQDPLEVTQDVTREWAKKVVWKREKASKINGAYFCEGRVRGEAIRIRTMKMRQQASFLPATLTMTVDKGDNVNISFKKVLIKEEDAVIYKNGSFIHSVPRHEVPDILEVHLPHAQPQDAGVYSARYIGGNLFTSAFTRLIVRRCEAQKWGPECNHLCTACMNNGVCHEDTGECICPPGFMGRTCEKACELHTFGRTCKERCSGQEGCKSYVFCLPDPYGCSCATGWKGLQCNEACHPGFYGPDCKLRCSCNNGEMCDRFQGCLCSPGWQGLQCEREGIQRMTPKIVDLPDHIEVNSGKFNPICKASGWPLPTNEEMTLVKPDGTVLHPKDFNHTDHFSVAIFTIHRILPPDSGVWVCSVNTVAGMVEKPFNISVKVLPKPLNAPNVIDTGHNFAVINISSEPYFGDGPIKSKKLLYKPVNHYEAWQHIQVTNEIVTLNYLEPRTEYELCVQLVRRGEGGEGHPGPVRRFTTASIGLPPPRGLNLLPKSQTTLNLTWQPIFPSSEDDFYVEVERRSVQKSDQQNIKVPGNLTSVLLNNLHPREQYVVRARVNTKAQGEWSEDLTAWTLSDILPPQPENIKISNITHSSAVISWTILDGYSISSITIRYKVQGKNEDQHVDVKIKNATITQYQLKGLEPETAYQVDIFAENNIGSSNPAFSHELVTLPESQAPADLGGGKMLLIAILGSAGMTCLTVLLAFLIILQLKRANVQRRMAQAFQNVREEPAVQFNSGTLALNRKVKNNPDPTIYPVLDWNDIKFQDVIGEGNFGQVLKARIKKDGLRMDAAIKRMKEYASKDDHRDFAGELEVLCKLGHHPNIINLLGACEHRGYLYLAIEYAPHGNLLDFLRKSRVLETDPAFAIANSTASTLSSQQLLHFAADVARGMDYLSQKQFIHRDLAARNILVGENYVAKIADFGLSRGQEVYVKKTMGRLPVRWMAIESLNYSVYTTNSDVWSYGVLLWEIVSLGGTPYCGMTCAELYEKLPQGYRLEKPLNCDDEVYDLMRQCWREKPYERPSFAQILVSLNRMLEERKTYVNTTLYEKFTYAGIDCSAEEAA
# Experimental: as §1
# PIM2 = PIM2 (Homo sapiens, UniProt Q9P1W9)
# Sequence of PIM2 (Q9P1W9 whole entry): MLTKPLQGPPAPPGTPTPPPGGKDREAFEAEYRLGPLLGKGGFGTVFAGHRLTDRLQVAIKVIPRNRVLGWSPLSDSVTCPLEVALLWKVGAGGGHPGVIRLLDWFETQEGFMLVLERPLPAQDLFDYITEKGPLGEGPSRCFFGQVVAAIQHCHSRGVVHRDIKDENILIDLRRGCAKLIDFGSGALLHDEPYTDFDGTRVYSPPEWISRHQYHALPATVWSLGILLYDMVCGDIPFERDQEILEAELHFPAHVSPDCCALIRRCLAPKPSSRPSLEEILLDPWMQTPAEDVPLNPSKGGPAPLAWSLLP
# Experimental: as §1
# MNK2 = MNK2 (Homo sapiens, UniProt Q9HBH9)
# Experimental: as §1
# EPH-A4 = EPH-A4 (Homo sapiens, UniProt P54764)
# Sequence of EPH-A4 (P54764 20-986): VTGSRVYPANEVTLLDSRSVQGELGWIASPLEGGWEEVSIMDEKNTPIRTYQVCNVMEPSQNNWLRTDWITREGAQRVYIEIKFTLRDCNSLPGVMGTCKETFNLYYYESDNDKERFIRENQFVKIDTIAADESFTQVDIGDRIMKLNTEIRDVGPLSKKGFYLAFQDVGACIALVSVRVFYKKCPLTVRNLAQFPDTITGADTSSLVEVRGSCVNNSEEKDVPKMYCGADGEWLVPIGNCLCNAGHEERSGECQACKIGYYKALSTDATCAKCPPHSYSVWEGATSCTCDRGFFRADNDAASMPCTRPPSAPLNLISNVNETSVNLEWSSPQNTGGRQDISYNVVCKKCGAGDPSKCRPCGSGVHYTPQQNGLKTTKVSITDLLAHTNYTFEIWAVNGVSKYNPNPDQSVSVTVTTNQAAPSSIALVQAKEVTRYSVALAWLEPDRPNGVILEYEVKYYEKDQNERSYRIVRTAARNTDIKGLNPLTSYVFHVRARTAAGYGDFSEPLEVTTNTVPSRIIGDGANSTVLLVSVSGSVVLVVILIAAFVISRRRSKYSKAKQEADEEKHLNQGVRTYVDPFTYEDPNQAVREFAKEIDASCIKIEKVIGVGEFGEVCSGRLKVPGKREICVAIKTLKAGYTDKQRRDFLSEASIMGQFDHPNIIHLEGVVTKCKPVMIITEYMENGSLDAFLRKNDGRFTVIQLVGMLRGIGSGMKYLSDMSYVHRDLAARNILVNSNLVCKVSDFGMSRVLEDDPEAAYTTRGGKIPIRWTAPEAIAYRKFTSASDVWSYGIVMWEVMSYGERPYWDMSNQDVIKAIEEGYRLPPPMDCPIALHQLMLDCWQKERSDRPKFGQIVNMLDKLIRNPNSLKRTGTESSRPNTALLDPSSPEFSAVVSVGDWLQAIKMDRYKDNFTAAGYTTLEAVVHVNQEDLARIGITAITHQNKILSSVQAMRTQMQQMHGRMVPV
# Experimental: as §1
# PIM1 = PIM1 (Homo sapiens, UniProt P11309)
# Experimental: as §1
# ERK1 = ERK1 (Homo sapiens, UniProt P27361)
# Experimental: as §1
# HIPK1 = HIPK1 (Homo sapiens, UniProt Q86Z02)
# Experimental: as §1
# STK33 = STK33 (Homo sapiens, UniProt Q9BYT3)
# Sequence of STK33 (Q9BYT3 whole entry): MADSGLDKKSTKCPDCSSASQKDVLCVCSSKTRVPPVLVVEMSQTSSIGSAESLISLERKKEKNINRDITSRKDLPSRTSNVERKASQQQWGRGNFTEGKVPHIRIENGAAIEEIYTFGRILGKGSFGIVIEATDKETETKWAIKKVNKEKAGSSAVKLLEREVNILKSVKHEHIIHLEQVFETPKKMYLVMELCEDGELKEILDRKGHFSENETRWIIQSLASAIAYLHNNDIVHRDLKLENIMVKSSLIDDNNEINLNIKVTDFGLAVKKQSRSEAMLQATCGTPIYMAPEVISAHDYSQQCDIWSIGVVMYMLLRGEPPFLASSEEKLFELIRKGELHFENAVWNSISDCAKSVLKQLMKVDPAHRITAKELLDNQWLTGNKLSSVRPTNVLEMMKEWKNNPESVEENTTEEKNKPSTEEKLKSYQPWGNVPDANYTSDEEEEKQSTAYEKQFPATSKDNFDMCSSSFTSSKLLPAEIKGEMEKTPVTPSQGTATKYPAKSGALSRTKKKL
# Experimental: as §1
# ULK1 = molecular target: T1, ULK1 (Homo sapiens, UniProt O75385)
# T1 sequence (O75385 1-1050): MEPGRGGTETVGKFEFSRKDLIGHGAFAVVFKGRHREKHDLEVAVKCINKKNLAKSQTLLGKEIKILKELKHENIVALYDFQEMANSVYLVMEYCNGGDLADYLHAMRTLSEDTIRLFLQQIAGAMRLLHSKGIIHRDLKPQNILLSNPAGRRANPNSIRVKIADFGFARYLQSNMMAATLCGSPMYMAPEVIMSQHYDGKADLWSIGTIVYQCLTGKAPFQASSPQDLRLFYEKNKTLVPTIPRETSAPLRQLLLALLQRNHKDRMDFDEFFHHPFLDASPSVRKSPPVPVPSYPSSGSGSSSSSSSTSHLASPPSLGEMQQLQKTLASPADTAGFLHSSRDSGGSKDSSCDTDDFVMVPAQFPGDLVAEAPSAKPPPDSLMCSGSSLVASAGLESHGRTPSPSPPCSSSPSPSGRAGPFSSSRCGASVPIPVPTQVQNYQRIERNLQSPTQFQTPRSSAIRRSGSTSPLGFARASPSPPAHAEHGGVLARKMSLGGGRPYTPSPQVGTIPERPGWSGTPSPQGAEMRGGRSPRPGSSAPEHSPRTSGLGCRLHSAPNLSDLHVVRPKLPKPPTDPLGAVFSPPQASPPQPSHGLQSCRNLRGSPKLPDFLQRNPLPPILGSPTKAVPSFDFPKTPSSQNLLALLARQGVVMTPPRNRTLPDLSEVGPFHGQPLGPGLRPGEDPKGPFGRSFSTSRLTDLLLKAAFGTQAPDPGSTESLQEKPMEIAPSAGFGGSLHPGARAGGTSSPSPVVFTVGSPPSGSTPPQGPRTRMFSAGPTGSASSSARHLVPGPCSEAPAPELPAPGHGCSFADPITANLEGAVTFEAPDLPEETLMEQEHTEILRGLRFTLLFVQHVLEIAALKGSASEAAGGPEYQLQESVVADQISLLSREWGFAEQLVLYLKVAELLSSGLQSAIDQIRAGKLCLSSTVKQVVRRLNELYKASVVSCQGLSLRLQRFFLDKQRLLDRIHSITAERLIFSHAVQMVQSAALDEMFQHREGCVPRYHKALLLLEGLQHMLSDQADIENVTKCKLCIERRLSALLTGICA
# Experimental: as §1
# JNK2 = JNK2 (Homo sapiens, UniProt P45984)
# Experimental: as §1
# IKKb = molecular target: T2, IKKb (Homo sapiens, UniProt O14920)
# T2 sequence (O14920 1-756): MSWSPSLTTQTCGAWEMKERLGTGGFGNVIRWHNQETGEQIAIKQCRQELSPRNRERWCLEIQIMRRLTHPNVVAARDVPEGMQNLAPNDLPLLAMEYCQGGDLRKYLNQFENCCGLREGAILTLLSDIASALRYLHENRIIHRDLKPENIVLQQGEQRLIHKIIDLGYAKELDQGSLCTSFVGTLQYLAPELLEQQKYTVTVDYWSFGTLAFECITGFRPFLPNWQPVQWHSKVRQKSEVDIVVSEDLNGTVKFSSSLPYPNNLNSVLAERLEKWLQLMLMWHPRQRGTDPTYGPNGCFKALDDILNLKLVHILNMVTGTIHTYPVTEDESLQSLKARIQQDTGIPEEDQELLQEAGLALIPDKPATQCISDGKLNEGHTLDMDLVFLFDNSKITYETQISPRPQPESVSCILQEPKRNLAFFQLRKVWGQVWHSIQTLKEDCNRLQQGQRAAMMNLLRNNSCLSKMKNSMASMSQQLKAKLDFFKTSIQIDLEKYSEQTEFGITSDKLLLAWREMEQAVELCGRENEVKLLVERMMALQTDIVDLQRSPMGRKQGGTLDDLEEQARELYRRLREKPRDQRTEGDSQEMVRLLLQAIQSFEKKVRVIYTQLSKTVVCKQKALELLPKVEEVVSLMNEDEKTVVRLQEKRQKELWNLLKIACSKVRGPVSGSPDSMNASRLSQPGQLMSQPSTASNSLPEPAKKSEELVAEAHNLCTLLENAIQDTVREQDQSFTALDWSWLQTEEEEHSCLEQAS
# Experimental: as §1
# EIF2AK3 = EIF2AK3 (Homo sapiens, UniProt Q9NZJ5)
# Experimental: as §1
# [1] = 1 μM, cross-referenced with screen data of ref 37, read-out: activity remaining after treatment
Structure (SMILES),remaining activity at 0.1 µM (TTBK2) [%],remaining activity at 0.1 µM (PKBb) [%],remaining activity at 0.1 µM (SmMLCK) [%],remaining activity at 0.1 µM (MELK) [%],remaining activity at 0.1 µM (TIE2) [%],remaining activity at 0.1 µM (PIM2) [%],remaining activity at 0.1 µM (MNK2) [%],remaining activity at 0.1 µM (EPH-A4) [%],remaining activity at 0.1 µM (PIM1) [%],remaining activity at 0.1 µM (ERK1) [%],remaining activity at 0.1 µM (HIPK1) [%],remaining activity at 0.1 µM (STK33) [%],inhibition at 0.1 µM (ULK1) [%],remaining activity at 0.1 µM (ULK1) [%],remaining activity at 0.1 µM (JNK2) [%],remaining activity at 0.1 µM (IKKb) [%],remaining activity at 0.1 µM (EIF2AK3) [%],remaining activity at 1 µM (MELK; [1]) [%],remaining activity at 1 µM (PIM2; [1]) [%],"remaining activity at 1 µM (IKKb; 1 μM, IKKβ, cross-referenced with screen data of ref 37, read-out: activity remaining after treatment) [%]"
"CC1=C(C#N)C(c2ccc3c(c2)c(NC(=O)c2ccccc2C)nn3C)C(C#N)=C(C)N1 [BAY-974, N-[5-(3,5-dicyano-2,6-dimethyl-1,4-dihydropyridin-4-yl)-1-methylindazol-3-yl]-2-methylbenzamide]",91,99,80,90,103,113,98,81,82,103,91,82,55 to 90,≤ 50,104,89,113,–,–,–
"CCc1ccccc1C(=O)Nc1n[nH]c2c(C)c(F)c(C3C(C#N)=C(C)N(C)C(C)=C3C#N)cc12 [BAY-3827, N-[5-(3,5-dicyano-1,2,6-trimethyl-4H-pyridin-4-yl)-6-fluoro-7-methyl-1H-indazol-3-yl]-2-ethylbenzamide]",93,93,76,81,69,112,99,94,86,105,94,94,–,88,105,105,98,≤ 50,≥ 99,≥ 99
